How the values were obtained:
[1] = target: T1, CYP2C8 (Homo sapiens, UniProt P10632); assay: In vitro metabolism by CYP enzymes; type: in vitro ADME
T1 sequence (P10632 1-490): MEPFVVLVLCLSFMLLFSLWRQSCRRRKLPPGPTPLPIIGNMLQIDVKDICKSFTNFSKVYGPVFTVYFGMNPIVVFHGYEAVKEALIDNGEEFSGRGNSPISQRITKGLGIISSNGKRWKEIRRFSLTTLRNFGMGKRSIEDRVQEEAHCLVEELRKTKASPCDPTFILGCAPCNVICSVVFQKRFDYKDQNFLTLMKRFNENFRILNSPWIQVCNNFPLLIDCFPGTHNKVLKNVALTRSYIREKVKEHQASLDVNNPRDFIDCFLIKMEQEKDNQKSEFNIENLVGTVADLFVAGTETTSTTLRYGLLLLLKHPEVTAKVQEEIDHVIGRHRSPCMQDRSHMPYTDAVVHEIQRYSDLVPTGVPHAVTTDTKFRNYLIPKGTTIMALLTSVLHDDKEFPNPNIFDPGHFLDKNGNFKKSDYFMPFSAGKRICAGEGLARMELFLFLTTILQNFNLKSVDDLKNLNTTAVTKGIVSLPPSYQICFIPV

[2] = Excretion after 100 mg radio-labeled oral dose; type: in vivo, human
Description: A metabolite MGL-3623 accounted for 3.3% and 16% of the dose recovered in feces and urine, respectively.

[3] = test system: adults with biopsy-confirmed NASH and fibrosis stage F1B, F2, or F3; assay: MAESTRO-NASH: sensitivity analyses of primary endpoints (consensus, multiple imputation, GEE, tipping point, paired biopsies); type: in vivo, human; conditions: for Fibrosis improvement at Week 52, % / Fibrosis improvement at Week 52, no. / NASH resolution at Week 52, % / NASH resolution at Week 52, no.: GEE analysis; for Difference in percentage of responders, CMH, resmetirom group - placebo, NASH resolution / Difference in percentage of responders, CMH, resmetirom group - placebo, fibrosis improvement / OR of resmetirom group to placebo, NASH resolution / OR of resmetirom group to placebo, fibrosis improvement: GEE model
Method: Consensus reads of digitized images of glass slides by the two central pathologists were conducted in cases where the two pathologists scores disagreed as to whether there was a response for either NASH resolution (ballooning 0,1; 2-point NAS reduction and no worsening of fibrosis) OR ≥1 stage fibrosis reduction with no worsening of NAS (primary endpoints) OR a 2-stage reduction in fibrosis with no worsening of NAS. The study pathologists remained blinded to all clinical data, patient ID, and slide/image identity or time of biopsy. Study personnel remain blinded to patient level data and detailed group analyses. In total 387 total assessments took place requiring four Zoom meetings between the pathologists.
Tipping Point Analyses: This analysis imputed missing placebo responses for NASH resolution (in increments from 0% to 100% placebo imputation) and fibrosis response (in increments from 0% up to 35% placebo imputation) at Week 52 as successful responses in order to determine how many missing responses (which were counted in the primary analysis labels as non-responders) could be imputed before losing statistical significance.
Multiple Imputation Analysis: Multiple imputation analyses were conducted where data for patients with missing response at Week 52 were imputed under the missing at random assumption. Data for patients with missing response data at Week 52 were imputed under the missing at random assumption by running a simulation (100 times) which produces a correlated pair of binary 0/1 data for each patient that represents the patient's response status for each pathologist. The statistics were then calculated for each imputation using the same approach as for the primary endpoint. The normalized results from each dataset were combined using Rubin's rule. (Table 17).
General Estimating Equation (GEE) Model Analysis: A generalized estimation equation (GEE) analysis was performed as a sensitivity analysis. This approach treated the biopsy scores from the two pathologists as repeated measures (i.e. correlated binary outcomes) within a patient. Baseline diabetes status, fibrosis stage and interaction term between pathologist and treatment were also included in the model.
Summary of Observed Cases Using In-window Week 52 Paired Liver Biopsies: Supportive analyses were performed on patients with in-window paired Week 52 biopsies. Missing Week 52 biopsies were not imputed.

[4] = 80 mg (N = 258), in window including a baseline and Week 52 biopsy
[5] = 80 mg (n = 316), (1, 1) = responder per pathologist A and B
[6] = 80 mg (n = 316), Week 52, tipping point analysis, active patients with missing response = non-responders
[7] = 80 mg, (0, 0) = non-responder per both pathologists
[8] = 80 mg, (0, 1) = responder per pathologist B only
[9] = 80 mg, (1, 0) = responder per pathologist A only
[10] = 100 mg (N = 248), in window including a baseline and Week 52 biopsy
[11] = 100 mg (n = 321), (1, 1) = responder per pathologist A and B
[12] = 100 mg (n = 321), Week 52, tipping point analysis, active patients with missing response = non-responders
[13] = 100 mg, (0, 0) = non-responder per both pathologists
[14] = 100 mg, (0, 1) = responder per pathologist B only
[15] = 100 mg, (1, 0) = responder per pathologist A only
[16] = in window including a baseline and Week 52 biopsy
[17] = in-window including a baseline and Week 52 biopsy
[18] = tipping point, Placebo-0% imputed responders (Primary Analysis)
[19] = tipping point, Placebo-10% imputed responders
[20] = tipping point, Placebo-20% imputed responders
[21] = tipping point, Placebo-25% imputed responders
[22] = tipping point, Placebo-30% imputed responders
[23] = tipping point, Placebo-35% imputed responders
[24] = tipping point, Placebo-60% imputed responders
[25] = tipping point, Placebo-67% imputed responders
[26] = tipping point, Placebo-90% imputed responders
[27] = tipping point, Placebo-100% imputed responders

## CC(C)c1cc(Oc2c(Cl)cc(-n3nc(C#N)c(=O)[nH]c3=O)cc2Cl)n[nH]c1=O [Resmetirom, 2-(3,5-dichloro-4-((5-isopropyl-6-oxo-1,6-dihydropyridazin-3-yl)oxy)phenyl)-3,5-dioxo-2,3,4,5-tetrahydro-1,2,4-triazine-6-carbonitrile]
[1]
  metabolizing CYP enzymes: metabolized by CYP2C8 and is not metabolized by other cytrochrome P450 (CYP) enzymes
[2]
  total radioactive dose recovered in feces: approximately 67%
  total radioactive dose recovered in urine: 24%
  unchanged labeled drug in feces: not detected
  unchanged labeled drug, dose recovered in urine: 1%
[3]; [4]
  % Response, Fibrosis improvement: 29.7%
  % Response, NASH resolution: 31.8%
[3]; 80 mg (N = 258), in-window including a baseline and Week 52 biopsy
  % Response, NASH resolution OR fibrosis improvement: 42.2%
[3]; [5]
  Fibrosis improvement at Week 52, %: (16.5) %
  Fibrosis improvement at Week 52, no.: 52
  NASH resolution at Week 52, %: (19.6) %
  NASH resolution at Week 52, no.: 62
[3]; [6]
  % Response, Fibrosis improvement: 24.2%
  % Response, NASH resolution: 25.9%
[3]; 80 mg, Week 52
  Fibrosis improvement, Consensus (sensitivity), % Difference from PBO: 12.2%
  Fibrosis improvement, Consensus (sensitivity), % Response: 24.4%
  Fibrosis improvement, Multiple imputation (sensitivity), % Difference from PBO: 11.4%
  Fibrosis improvement, Multiple imputation (sensitivity), % Response: 29.2%
  NASH resolution, Consensus (sensitivity), % Difference from PBO: 16.8%
  NASH resolution, Consensus (sensitivity), % Response: 24.4%
  NASH resolution, Multiple imputation (sensitivity), % Difference from PBO: 17.7%
  NASH resolution, Multiple imputation (sensitivity), % Response: 31.0%
  Difference in percentage of responders, CMH, resmetirom group - placebo, NASH resolution: 17.5
  Difference in percentage of responders, CMH, resmetirom group - placebo, fibrosis improvement: 9.7
  OR of resmetirom group to placebo, NASH resolution: 3.5
  OR of resmetirom group to placebo, fibrosis improvement: 2.0
[3]; [7]
  Fibrosis improvement at Week 52, %: (68.0) %
  Fibrosis improvement at Week 52, no.: 215
  NASH resolution at Week 52, %: (67.7) %
  NASH resolution at Week 52, no.: 214
[3]; [8]
  Fibrosis improvement at Week 52, %: (8.9) %
  Fibrosis improvement at Week 52, no.: 28
  NASH resolution at Week 52, %: (5.1) %
  NASH resolution at Week 52, no.: 16
[3]; [9]
  Fibrosis improvement at Week 52, %: (6.6) %
  Fibrosis improvement at Week 52, no.: 21
  NASH resolution at Week 52, %: (7.6) %
  NASH resolution at Week 52, no.: 24
[3]; [10]
  % Response, Fibrosis improvement: 33.5%
  % Response, NASH resolution: 38.7%
[3]; 100 mg (N = 248), in-window including a baseline and Week 52 biopsy
  % Response, NASH resolution OR fibrosis improvement: 50.4%
[3]; [11]
  Fibrosis improvement at Week 52, %: (15.9) %
  Fibrosis improvement at Week 52, no.: 51
  NASH resolution at Week 52, %: (19.3) %
  NASH resolution at Week 52, no.: 62
[3]; [12]
  % Response, Fibrosis improvement: 25.9%
  % Response, NASH resolution: 29.9%
[3]; 100 mg, Week 52
  Fibrosis improvement, Consensus (sensitivity), % Difference from PBO: 13.4%
  Fibrosis improvement, Consensus (sensitivity), % Response: 25.5%
  Fibrosis improvement, Multiple imputation (sensitivity), % Difference from PBO: 14.1%
  Fibrosis improvement, Multiple imputation (sensitivity), % Response: 31.9%
  NASH resolution, Consensus (sensitivity), % Difference from PBO: 20.7%
  NASH resolution, Consensus (sensitivity), % Response: 27.7%
  NASH resolution, Multiple imputation (sensitivity), % Difference from PBO: 23.2%
  NASH resolution, Multiple imputation (sensitivity), % Response: 36.0%
  Difference in percentage of responders, CMH, resmetirom group - placebo, NASH resolution: 21.3
  Difference in percentage of responders, CMH, resmetirom group - placebo, fibrosis improvement: 11.0
  OR of resmetirom group to placebo, NASH resolution: 4.2
  OR of resmetirom group to placebo, fibrosis improvement: 2.1
[3]; [13]
  Fibrosis improvement at Week 52, %: (64.2) %
  Fibrosis improvement at Week 52, no.: 206
  NASH resolution at Week 52, %: (59.5) %
  NASH resolution at Week 52, no.: 191
[3]; [14]
  Fibrosis improvement at Week 52, %: (9.3) %
  Fibrosis improvement at Week 52, no.: 30
  NASH resolution at Week 52, %: (4.0) %
  NASH resolution at Week 52, no.: 13
[3]; [15]
  Fibrosis improvement at Week 52, %: (10.6) %
  Fibrosis improvement at Week 52, no.: 34
  NASH resolution at Week 52, %: (17.1) %
  NASH resolution at Week 52, no.: 55
[3]; [16]
  % Difference Resmetirom 80 mg from PBO, Fibrosis improvement: 13.6%
  % Difference Resmetirom 80 mg from PBO, NASH resolution: 20.9%
  % Difference Resmetirom 100 mg from PBO, Fibrosis improvement: 17.2%
  % Difference Resmetirom 100 mg from PBO, NASH resolution: 28.6%
[3]; [17]
  % Difference Resmetirom 80 mg from PBO, NASH resolution OR fibrosis improvement: 23.1%
  % Difference Resmetirom 100 mg from PBO, NASH resolution OR fibrosis improvement: 31.2%
[3]; [18]
  % Difference Resmetirom 80 mg from PBO, Fibrosis improvement: 10.2%
  % Difference Resmetirom 80 mg from PBO, NASH resolution: 16.4%
  % Difference Resmetirom 100 mg from PBO, Fibrosis improvement: 11.8%
  % Difference Resmetirom 100 mg from PBO, NASH resolution: 20.7%
[3]; [19]
  % Difference Resmetirom 80 mg from PBO, Fibrosis improvement: 8.8%
  % Difference Resmetirom 100 mg from PBO, Fibrosis improvement: 10.4%
[3]; [20]
  % Difference Resmetirom 80 mg from PBO, Fibrosis improvement: 7.5%
  % Difference Resmetirom 100 mg from PBO, Fibrosis improvement: 9.1%
[3]; [21]
  % Difference Resmetirom 80 mg from PBO, Fibrosis improvement: 6.9%
  % Difference Resmetirom 100 mg from PBO, Fibrosis improvement: 8.5%
[3]; [22]
  % Difference Resmetirom 80 mg from PBO, Fibrosis improvement: 6.2%
  % Difference Resmetirom 80 mg from PBO, NASH resolution: 12.4%
  % Difference Resmetirom 100 mg from PBO, Fibrosis improvement: 7.8%
  % Difference Resmetirom 100 mg from PBO, NASH resolution: 16.7%
[3]; [23]
  % Difference Resmetirom 80 mg from PBO, Fibrosis improvement: 5.5%
  % Difference Resmetirom 100 mg from PBO, Fibrosis improvement: 7.1%
[3]; [24]
  % Difference Resmetirom 80 mg from PBO, NASH resolution: 8.3%
  % Difference Resmetirom 100 mg from PBO, NASH resolution: 12.7%
[3]; [25]
  % Difference Resmetirom 80 mg from PBO, NASH resolution: 7.4%
  % Difference Resmetirom 100 mg from PBO, NASH resolution: 11.7%
[3]; [26]
  % Difference Resmetirom 80 mg from PBO, NASH resolution: 4.2%
  % Difference Resmetirom 100 mg from PBO, NASH resolution: 18.6%
[3]; [27]
  % Difference Resmetirom 80 mg from PBO, NASH resolution: 2.6%
  % Difference Resmetirom 100 mg from PBO, NASH resolution: 7.0%

Source: patent publication US12377104B1, “Methods for treating a fatty liver disease” (Madrigal Pharmaceuticals, Inc., priority 2024, dated 2025)
